Measured values as given in patent US10913738B2 (BRISTOL-MYERS SQUIBB COMPANY, priority 2017, dated 2021).

These compounds were tested on MLKL phosphorylation in HT29-L23 human colorectal adenocarcinoma cells (assay: MLKL Phosphorylation High-Content Assay). Details: Homo sapiens, x marks IC50 class 20-200 nM, read-out: pMLKL cell activity 20-200 nM.
Type: cell-based
Method: MLKL Phosphorylation High-Content Assay
Following six hours incubation at 37° C. […] MLKL phosporylation was detected using anti-MLKL (phospho S358) antibody (Abcam #ab187091) (1:1000 dilution in Blocking Buffer [PBS supplemented with 0.1% BSA]) with overnight incubation at 4° C. […] Following another three cycles of washes in PBS, the microplates were sealed, and cellular images were acquired in the Cellomics ArrayScan VTI high-content imager equipped with an X1 camera. […] The image sets were analyzed using the Compartmental Analysis Bioapplication software (Cellomics). The level of MLKL phosphorylation was quantified as MEAN CircRingAvgIntenRatio. […] The data were fitted using the 4-parameter logistic equation to calculate the IC50 and Ymax values.

Row | Compound | IC50 [nM]
1 | COc1ncc(-c2ccn3nc(N)nc3c2)cc1C(=O)NC(C)CCc1ccccc1 (centres unmarked) [Example 101, 5-{2-amino-[1,2,4]triazolo[1,5-a]pyridin-7-yl}-2-methoxy-N-(4-phenylbutan-2-yl)pyridine-3-carboxamide] | 20 to 200
2 | Nc1nc2cc(-c3cnc(Cl)c(C(=O)NCc4cc(C(F)(F)F)ccc4F)c3)ccn2n1 [Example 170, 5-{2-amino-[1,2,4]triazolo[1,5-a]pyridin-7-y1}-2-chloro-N-{[2-fluoro-5-(trifluoromethyl)phenyl]methyl}pyridine-3-carboxamide] | 20 to 200
3 | Cc1nc(C)c(-c2ccn3nc(N)nc3c2)cc1C(=O)NCc1cc(F)cc(F)c1O[C@H]1CCOC1 [Example 295, (S)-5-(2-amino-[1,2,4]triazolo[1,5-a]pyridin-7-yl)-N-(3,5-difluoro-2-((tetrahydrofuran-3-yl)oxy)benzyl)-2,6-dimethylnicotinamide] | 20 to 200
4 | Cc1ncc(-c2ccn3nc(N)nc3c2)cc1C(=O)Nc1cn(Cc2ccccc2)cn1 [Example 319, 5-(2-amino-[1,2,4]triazolo[1,5-a]pyridin-7-yl)-N-(1-benzyl-1H-imidazol-4-yl)-2-methylnicotinamide] | 20 to 200

Same assay, conditions: Homo sapiens, x marks IC50 class <20 nM, read-out: pMLKL cell activity <20 nM

Row | Compound | IC50 [nM]
5 | Nc1nc2cc(-c3cnc(Cl)c(C(=O)Nc4cnn(Cc5ccccc5)c4)c3)ccn2n1 [Example 83, 5-{2-Amino-[1,2,4]triazolo[1,5-a]pyridin-7-yl}-N-(1-benzyl-1H-pyrazol-4-yl)-2-chloropyridine-3-carboxamide] | < 20
6 | COc1ncc(-c2ccn3nc(N)nc3c2)cc1C(=O)NCCC(C)c1ccccc1 (centres unmarked) [Example 85, 5-{2-Amino-[1,2,4]triazolo[1,5-a]pyridin-7-yl}-2-methoxy-N-(3-phenylbutyl)pyridine-3-carboxamide] | < 20
7 | COc1ncc(-c2ccn3nc(N)nc3c2)cc1C(=O)NCC(C)Cc1ccccc1 (centres unmarked) [Example 113, 5-{2-amino-[1,2,4]triazolo[1,5-a]pyridin-7-yl}-2-methoxy-N-(2-methyl-3-phenylpropyl)pyridine-3-carboxamide] | < 20

Same assay, conditions: Homo sapiens, x marks IC50 class >200 nM, read-out: pMLKL cell activity >200 nM

Row | Compound | IC50 [nM]
8 | COc1ncc(-c2ccn3nc(N)nc3c2)cc1C(=O)NCCC(O)c1ccc(F)cc1 (single isomer, unassigned) [Example 71-2, 5-(2-Amino-[1,2,4]triazolo[1,5-a]pyridin-7-yl)-N-(3-(4-fluorophenyl)-3-hydroxypropyl)-2-methoxynicotinamide] | > 200
9 | COc1ncc(-c2ccn3nc(N)nc3c2)cc1C(=O)NC[C@H]1C[C@@H]1c1ccc(F)cc1 [Example 112, 5-{2-amino-[1,2,4]triazolo[1,5-a]pyridin-7-yl}-N-{[(1S,2S)-2-(4-fluorophenyl)cyclopropyl]methyl}-2-methoxypyridine-3-carboxamide] | > 200

What follows are compounds tested against T1, His-GST-TVMV-hRIPK1(1-324) (Homo sapiens, UniProt Q13546) (assay: RIPK1 HTRF Binding Assay). Details: x marks IC50 class 20-200 nM; read-out: RIPK1 HTRF binding 20-200 nM.
T1 construct: The coding region of human RIPK1(1-324) flanked by NdeI site at 5′ end; made in house; host or cells: Spodoptera frugiperda (Sf9) insect cells, baculovirus
T1 sequence (Q13546 1-324): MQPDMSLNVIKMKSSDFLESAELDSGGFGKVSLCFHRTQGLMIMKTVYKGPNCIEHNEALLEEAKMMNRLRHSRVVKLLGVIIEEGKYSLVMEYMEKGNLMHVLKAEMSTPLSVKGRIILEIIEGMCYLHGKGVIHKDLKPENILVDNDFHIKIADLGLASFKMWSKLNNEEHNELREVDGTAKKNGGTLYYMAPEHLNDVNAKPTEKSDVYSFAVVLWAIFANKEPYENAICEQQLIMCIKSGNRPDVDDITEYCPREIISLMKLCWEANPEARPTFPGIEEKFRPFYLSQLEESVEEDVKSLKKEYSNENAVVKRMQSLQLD
Method: The plate was incubated at rt for 1 h.
Cloning and Baculovirus Expression of RIPK1 Construct
Baculovirus was generated for the construct using the Bac-to-Bac baculovirus expression system (Invitrogen) according to the manufacturer's protocol. Briefly, recombinant bacmid was isolated from transformed DH10Bac E. coli competent cells (Invitrogen) and used to transfect Spodoptera frugiperda (Sf9) insect cells (Invitrogen). Baculovirus was harvested 72 hours post transfection and a virus stock was prepared by infecting fresh Sf9 cells at a 1/1000 (v/v) ratio for 66 hours.
The production was carried out either at a 10 L scale in a 22 L cellbag (GE Healthcare Bioscience, Pittsburgh, Pa.) or at a 20 L scale in a 50 L cellbag using WAVE-Bioreactor System 20/50 (GE Healthcare Bioscience). The infected cells were harvested by centrifugation at 2000 rpm for 20 min at 4° C. in a SORVALL® RC12BP centrifuge. The cell pellets was stored at −70° C. before protein was purified.
RIPK1 containing cell paste was resuspended in 50 mM Tris pH 7.5, 150 mM NaCl, 10 mM imidazole, 5% glycerol, 5 mM MgSO4, 1 mM TCEP, 25 U/ml Benzonase, and Complete Protease Inhibitor tablets (1/50 ml, Roche Diagnostics, Indianapolis, Ind.). […] The suspension was clarified by centrifugation at 136,000×g for 40 min, at 4° C. The lysate was decanted from the pellet and passed through a 5 ml NiNTA Superflow cartridge (Qiagen, Valencia, Calif.) using an AKTA Pure (GE Healthcare). Column was eluted with 10 CV linear gradient into 50 mM Tris 7.5, 150 mM NaCl, 500 mM imidazole, 5% glycerol, 1 mM TCEP. Peak fractions were pooled and loaded directly onto 5 ml GSTrap 4B column (GE Healthcare). Column was washed with 50 mM Tris 7.0, 150 mM NaCl, 5% glycerol, 1 mM DTT and eluted in 10 CV linear gradient into 50 mM Tris 8.0, 150 mM NaCl, 20 mM reduced glutathione, 5% glycerol, 1 mM DTT. Fractions identified by SDS-PAGE as containing RIPK1 were pooled and concentrated using 30 kDa MWCO spin concentrators (Amicon Ultra-15, Millipore, Billerica, Mass.) and loaded onto a HiLoad 26/600 Superdex 200 column (GE Healthcare) equilibrated in 25 mM Tris 7.5, 150 mM NaCl, 2 mM TCEP, 5% glycerol.
Protein was aliquoted and stored at −80° C.

Row | Compound | IC50 [nM]
10 | COc1ncc(-c2ccn3nc(N)nc3c2)cc1C(=O)NCC[C@H](O)c1ccc(Cl)cc1 [Example 157, 5-{2-amino-[1,2,4]triazolo[1,5-a]pyridin-7-yl}-N-[(3S)-3-(4-chlorophenyl)-3-hydroxypropyl]-2-methoxypyridine-3-carboxamide] | 20 to 200
11 | Cc1nc(C)c(-c2ccn3nc(N)nc3c2)cc1C(=O)NCC[C@@H](O)c1ccc(Cl)cc1 [Example 178, 5-{2-amino-[1,2,4]triazolo[1,5-a]pyridin-7-yl}-N-[(3R)-3-(4-chlorophenyl)-3-hydroxypropyl]-2,6-dimethylpyridine-3-carboxamide] | 20 to 200
12 | COc1nc(C)c(-c2ccn3nc(N)nc3c2)cc1C(=O)NCC[C@H](O)c1ccc(Cl)cc1 [Example 193, 5-{2-amino-[1,2,4]triazolo[1,5-a]pyridin-7-yl}-N-[(3S)-3-(4-chlorophenyl)-3-hydroxypropyl]-2-methoxy-6-methylpyridine-3-carboxamide] | 20 to 200

Same assay, conditions: x marks IC50 class <20 nM; read-out: RIPK1 HTRF binding <20 nM

Row | Compound | IC50 [nM]
13 | 5-(2-amino-[1,2,4]triazolo[1,5-a]pyridin-7-yl)-2-methoxy-N-(2-(pyrrolidine-1-carbonyl)benzyl)nicotinamide [Example 379] | < 20
14 | 5-(2-amino-[1,2,4]triazolo[1,5-a]pyridin-7-yl)-N-(3,5-difluoro-2-isobutoxybenzyl)-2-methoxynicotinamide [Example 341] | < 20
15 | COc1ncc(-c2ccn3nc(N)nc3c2)cc1C(=O)NC(C)c1cc(OC(F)(F)F)ccc1F (single isomer, unassigned) [Example 89-2, 5-{2-amino-[1,2,4]triazolo[1,5-a]pyridin-7-yl}-N-{1-[2-fluoro-5-(trifluoromethoxy)phenyl]ethyl}-2-methoxypyridine-3-carboxamide] | < 20
16 | [2H]C([2H])([2H])Oc1nc(C)c(-c2ccn3nc(N)nc3c2)cc1C(=O)NC(C)c1cc(OC(F)(F)F)ccc1F (single isomer, unassigned) [Example 97-2, 5-{2-amino-[1,2,4]triazolo[1,5-a]pyridin-7-yl}-N-{1-[2-fluoro-5-(trifluoromethoxy)phenyl]ethyl}-2-(deutero)methoxy-6-methylpyridine-3-carboxamide] | < 20
17 | Cc1ncc(-c2ccn3nc(N)nc3c2)cc1C(=O)NC(C)c1cc(C(F)(F)F)ccc1F (single isomer, unassigned) [Example 99-2, 5-{2-amino-[1,2,4]triazolo[1,5-a]pyridin-7-yl}-N-{1-[2-fluoro-5-(trifluoromethyl)phenyl]ethyl}-2-methylpyridine-3-carboxamide] | < 20
18 | Cc1ncc(-c2ccn3nc(N)nc3c2)cc1C(=O)NCCC(C)c1ccccc1 (centres unmarked) [Example 82, 5-{2-Amino-[1,2,4]triazolo[1,5-a]pyridin-7-yl}-2-methyl-N-(3-phenylbutyl)pyridine-3-carboxamide] | < 20
19 | Cc1nc(C)c(-c2ccn3nc(N)nc3c2)cc1C(=O)NCC[C@H](O)c1ccc(Cl)cc1 [Example 179, 5-{2-amino-[1,2,4]triazolo[1,5-a]pyridin-7-yl}-N-[(3S)-3-(4-chlorophenyl)-3-hydroxypropyl]-2,6-dimethylpyridine-3-carboxamide] | < 20
20 | (R)-2-(2-amino-[1,2,4]triazolo[1,5-a]pyridin-7-yl)-N-(1-(2-fluoro-5-(trifluoromethyl)phenyl)ethyl)-5-methylisonicotinamide [Example 396] | < 20
21 | (R)-5-(2-amino-[1,2,4]triazolo[1,5-a]pyridin-7-yl)-N-(1-(2-fluoro-5-(trifluoromethoxy)phenyl)ethyl-2,2,2-d3)-2-methoxynicotinamide [Example 345] | < 20
22 | (S)-2-(2-amino-[1,2,4]triazolo[1,5-a]pyridin-7-yl)-N-(3-(4-chlorophenyl)-3-hydroxypropyl)-5-methylisonicotinamide [Example 397] | < 20

Same assay, conditions: x marks IC50 class >200 nM; read-out: RIPK1 HTRF binding >200 nM

Row | Compound | IC50 [nM]
23 | COc1ncc(-c2ccn3nc(N)nc3c2)cc1C(=O)NCCC(O)c1ccc(Cl)cn1 (centres unmarked) [Example 75, 5-{2-Amino-[1,2,4]triazolo[1,5-a]pyridin-7-yl}-N-[3-(5-chloropyridin-2-yl)-3-hydroxypropyl]-2-methoxypyridine-3-carboxamide] | > 200
